Measured values published in patent US12440581B2, “Fluorophores for super-resolution imaging” (HOWARD HUGHES MEDICAL INSTITUTE, priority 2019, dated 2025).
Where two headings read alike, the source gives them in different places.

Assays:
[1] = system: histone H2A.Z-HaloTag fusion; assay: Comparison of HaloTag ligands 6HTL and 9HTL in live yeast; format: cell-based, S. cerevisiae; conditions: 10 nM, 2 h, washed, wide-field fluorescence
Method: Comparison of HaloTag ligands 6HTL and 9HTL. in live yeast. A S. cerevisiae strain expressing a histone H2A.Z-HaloTag fusion under natural promoter control was created; the PDR5 transporter gene was also deleted for improved cellular retention of fluorescent ligands. Cells were grown to early log phase and incubated with either JF552-HaloTag ligand (9HTL; 10 nM) or JF549-HaloTag ligand (6HTL; 10 nM) for 2 h. Free ligand was removed by three washes in culture media and the live cells were imaged by wide-field fluorescence microscopy at ambient temperature.

[2] = Quantum yield determination; format: physicochemical; conditions: for ϕ (fluorescence quantum yield): absolute, integrating sphere
Method: (§1) Quantum yield determination. All reported absolute fluorescence quantum yield values (Φ) were measured in the laboratory under identical conditions using a Quantaurus-QY spectrometer (model C11374, Hamamatsu). This instrument uses an integrating sphere to determine photons absorbed and emitted by a sample. Measurements were carried out using dilute samples (A<0.1) and self-absorption corrections were performed using the instrument software^57 when appropriate. Reported values are averages (n=3).

[3] = Absorption of dyes 1 and 2 in the presence of laboratory detergents; format: physicochemical; conditions: 20 mM sodium phosphate buffer, pH 7.0, 5 mg/mL detergent
Method: FIGS. 11A-11J. FIG. 11A-Absorption at λabs for dyes 1 and 2 in 20 mM sodium phosphate buffer, pH 7.0 containing 5 mg/mL detergent, error bars show±s.e.m. FIGS. 11B and 11C-Absorption spectra for dyes 1 (FIG. 11B) and 2 (FIG. 11C) near λabs in the presence (dashed line) or absence (solid line) of SDS. FIG. 11D—Chemical structures and properties of HaloTag ligands 1HTL-10HTL; ΔA/A0 indicates the change in absorption (ΔA) and ΔF/F0 indicates the change in fluorescence (ΔF) of the HaloTag ligands upon binding purified HaloTag protein divided by the basal absorption or fluorescence of the free ligand (F0 or A0). FIG. 11E—ΔA/A0 of the HaloTag ligands 1HTL-10HTL vs. KL-Z of the corresponding free dyes 1-10; the solid line indicates a linear fit (R^2=0.93). (f) ΔF/F0 vs. ΔA/A0 for the HaloTag ligands 1HTL-10HTL; the solid line indicates a linear fit (R^2=0.87). FIG. 11G—Normalized absorption (abs, solid line), normalized fluorescence excitation (ex, dashed line), and FIG. 11H—normalized fluorescence emission (em) spectra for dye 8 in 10 mM HEPES, pH 7.3.
The mechanism of SiR/JF646 fluorogenicity. […] The interaction between the Si-rhodamine dyes 1 and 2 and SDS was further characterized by measuring the absorption of 1 or 2 vs. [SDS] and observing the absorbance increase only above the critical micelle concentration (c.m.c.) of SDS (FIG. 1C). […]

[4] = Introduction, known dyes; cited from earlier work
[5] = Determination KL-Z and εmax; format: physicochemical; conditions: for εmax: 0.1% TFA in TFE (rhodamine 10), 0.1% TFA in ethanol (Si-rhodamine 8); for KL-Z (lactone-zwitterion equilibrium constant): 1:1 (v/v) dioxane:water, 0.01% triethylamine
Method: Determination KL-Z and εmax. The lactone-zwitterion equilibrium constant (KL-Z) was calculated as described previously^18,41 using equation 1: KL-Z=(εdw/εmax)/(1−εdw/εmax) (1) • where εdw is the extinction coefficient of the dyes in a 1:1 (v/v) dioxane:water solvent mixture containing 0.01% (v/v) triethylamine; the dioxane-water mixture was chosen to give a large range of KL-Z values and the triethylamine additive ensures the rhodamines are in the net neutral form. The emax (maximal extinction coefficient) values were measured in 0.1% (v/v) trifluoroacetic acid (TFA) in 2,2,2-trifluoroethanol (TFE) for rhodaminc 10, and 0.1% (v/v) TFA in ethanol for the Si-rhodamine 8.
Instead, a solution of strong acid in alcoholic solvents was used (e.g., TFA in […]) to shift the equilibrium to the open form by protonation of the o-carboxyl group. This decades-old procedure^36 allows estimation of the maximal extinction coefficient (εmax) and determination of KL-Z=(ε/εmax)/(1−ε/εmax).
The KL-Z was determined using ε values measured in 1:1 dioxane:water to ensure a broad distribution of values.^18 An inverse relationship was observed between KL-Z and fluorogenicity, showing that KL-Z is sufficient to accurately predict the increase in fluorescence of rhodamine dyes. This increase in fluorescence is primarily driven by the increase in absorption; chromogenicity is correlated both with KL-Z and fluorogenicity (FIGS. 11E-11J). Importantly, this trend holds across different rhodamine scaffolds including Si-rhodamines (1-3), carborhodamines (4-5), and classic, oxygen-containing rhodamines (6-7, FIG. 1C). Based on this inverse relationship a simple rubric was determined: a dye with KL-Z<10^−2 should yield a HaloTag ligand with at least 10-fold fluorogenicity (FIG. 1E).

[6] = Introduction, known dyes; cited from earlier work; remark: listed apart in the source
[7] = Introduction, known dyes, cited from earlier work; for ε (extinction coefficient): free dye in aqueous solution
[8] = UV-vis and fluorescence spectroscopy; format: physicochemical; conditions: for εw / λabs / λem: 10 mM HEPES, pH 7.3; for hypsochromic shift: relative to parent dye (SiR for SiR110; JF549 for JF525)
Method: UV-vis and fluorescence spectroscopy. […] Spectroscopy was performed using 1-cm path length, 3.5-mL quartz cuvettes or 1-cm path length, 1.0-ml quartz microcuvettes (Starna Cells). All measurements were taken at ambient temperature (22±2° C.). Absorption spectra were recorded on a Cary Model 100 spectrometer (Agilent). Fluorescence spectra were recorded on a Cary Eclipse fluorometer (Varian). Maximum absorption wavelength (λabs), extinction coefficient (εw), and maximum emission wavelength (λem) were taken in 10 mM HEPES, pH 7.3 buffer unless otherwise noted; reported values for ew are averages (n=3). Normalized spectra are shown for clarity.

polyA·polyT DNA (DNAAT) = assay: Quantum yield of 10HST following binding DNA (polyA·polyT); conditions: PBS pH 7.4, with polyA·polyT DNA duplex
Method: as §1
(§2) Measurement of increase in absorbance and fluorescence of 10HST following binding DNA. 10HST (5 μM) was added to phosphate buffered saline (PBS; pH 7.4) containing no DNA (blank), a DNA duplex with sequences 5′-A20-3′ and 5′-T20-3′ (polyA·polyT; i.e., DNAAT; 50 μM; Integrated DNA Technologies), or a DNA duplex with sequences 5′-G20-3′ and 5′-C20-3′ (polyG·polyC; i.e., DNAGC; 50 μM; Integrated DNA Technologies). These solutions were incubated for 2 h at ambient temperature, followed by measurement of absorption spectra. The solutions were then diluted to 500 nM in PBS for measurement of fluorescence spectra or diluted to 1.25 μM in PBS for measurement of quantum yield. Found: 10HST Φ=0.009; 10HST·DNAAT Φ=0.126; 10HST·DNAGC Φ=0.040.

polyG·polyC DNA (DNAGC) = assay: Quantum yield of 10HST following binding DNA (polyG·polyC); conditions: PBS pH 7.4, with polyG·polyC DNA duplex
Method: as §1, §2

Row | Compound | ϕ (fluorescence quantum yield) [2] | εmax [5] | KL-Z (lactone-zwitterion equilibrium constant) [5] | εw [8] | λabs [8] [nm] | λem [8] [nm] | other results
1 | O=C(NCCOCCOCCCCCCCl)c1ccc2c(c1)C1(OC2=O)c2ccc(N3CCC3)cc2Oc2cc(N3CCC3)ccc21 [6HTL] |  |  |  |  |  |  | labeling of yeast nuclei (fluorescence signal) [1]: relatively poor labeling
2 | O=C(NCCOCCOCCCCCCCl)c1ccc(C(=O)[O-])c(-c2c3cc(F)c(=[N+]4CCC4)cc-3oc3cc(N4CCC4)c(F)cc23)c1 [9HTL, JF552-HaloTag ligand] |  |  |  |  |  |  | labeling of yeast nuclei (fluorescence signal) [1]: high fluorescence signal
3 | CN(C)c1ccc2c(c1)[Si](C)(C)c1cc(N(C)C)ccc1C21OC(=O)c2ccccc21 [dye 1, tetramethyl-Si-rhodamine] | 0.41 | 141,000 M^−1cm^−1 | 0.0034 |  |  |  | change of absorption with detergents [3]: absorbance increases only in the presence of SDS; KL-Z [4]: 0.0034; Φ (fluorescence quantum yield) [6]: 0.41
4 | C[Si]1(C)c2cc(N3CCC3)ccc2C2(OC(=O)c3ccccc32)c2ccc(N3CCC3)cc21 [dye 2, JF646] | 0.54 | 152,000 M^−1cm^−1 | 0.0012 | 5,000 M^−1cm^−1 | 646 | 664 | λabs [7]: 646 nm; λem [7]: 664 nm; ε (extinction coefficient) [7]: 5,000 M^−1 cm^−1; change of absorption with detergents [3]: absorbance increases only in the presence of SDS; KL-Z [4]: 0.0012; Φ (fluorescence quantum yield) [6]: 0.54
5 | C[Si]1(C)c2cc(N3CC(F)C3)ccc2C2(OC(=O)c3ccccc32)c2ccc(N3CC(F)C3)cc21 [dye 3, JF635] | 0.56 | 167,000 M^−1cm^−1 | <0.0001 | ~400 M⁻¹ cm⁻¹ | 635 | 652 | λabs [7]: 635 nm; λem [7]: 652 nm; ε (extinction coefficient) [7]: 400 M⁻¹ cm⁻¹; KL-Z [4]: < 0.0001; Φ (fluorescence quantum yield) [6]: 0.54
6 | CC1(C)c2cc(N3CCC3)ccc2C2(OC(=O)c3ccccc32)c2ccc(N3CCC3)cc21 [dye 4, JF608] | 0.67 | 121,000 M^−1cm^−1 | 0.091 | 99,000 M^−1cm^−1 | 608 | 631 | 
7 | CC1(C)c2cc(N3CC(F)(F)C3)ccc2C2(OC(=O)c3ccccc32)c2ccc(N3CC(F)(F)C3)cc21 [dye 5, JF585] | 0.78 | 156,000 M^−1cm^−1 | <0.0001 | 1,500 M^−1cm^−1 | 585 | 609 | 
8 | O=C1OC2(c3ccc(N4CCC4)cc3Oc3cc(N4CCC4)ccc32)c2ccccc21 [dye 6, JF549] | 0.88 | 134,000 M^−1cm^−1 | 3.5 | 101,000 M^−1cm^−1 | 549 | 571 | 
9 | O=C1OC2(c3ccc(N4CC(F)(F)C4)cc3Oc3cc(N4CC(F)(F)C4)ccc32)c2ccccc21 [dye 7, JF525] | 0.91 | 122,000 M^−1cm^−1 | 0.068 | 94,000 M^−1cm^−1 | 525 | 549 | hypsochromic shift [8]: ~25 nm
10 | O=C([O-])c1ccccc1-c1c2cc(F)c(=[N+]3CCC3)cc-2oc2cc(N3CCC3)c(F)cc12 [dye 9, Janelia Fluor 552] | 0.83 | 129,000 M^−1cm^−1 | 0.70 | 95,000 M^−1cm^−1 | 552 | 575 | reduction of KL-Z ([5]; relative to JF549): 5 fold
11 | JF526-Hoechst [10HST] |  |  |  |  |  |  | Φ (polyA·polyT DNA (DNAAT)): 0.126; Φ ([2]; PBS pH 7.4, no DNA (blank), 1.25 μM): 0.009; Φ (polyG·polyC DNA (DNAGC)): 0.040
12 | Si-Rhodamine 110 [dye 8] | 0.53 | 94,000 M^−1cm^−1 | 0.0043 | 2,200 M^−1cm^−1 | 587 | 609 | hypsochromic shift [8]: ~50 nm
